Laboratory results published in US4948807A, “Phenyl carbamates” (priority 1985, dated 1990).
Where two headings read alike, the source gives them in different places.

Tests used:
in vivo = settings: for selectivity ratio / LD50 at 3 h: mouse, in vivo; for absorption from the gastro-intestinal tract compared with physostigmine: from oral versus s.c. LD50; for protection by atropine against lethality: atropine pretreatment
Protocol: Mice were given one of at least three different doses of each compound, orally or subcutaneously, a minimum of 10 mice allotted to each dose. The number of animals which died at each dose within 3 hours was determined.
This experiment was repeated after the animals had been pretreated with atropine sulphate, which blocks both peripheral and central muscarinic receptors.
What is important is the safety of the drugs and the presence and severity of side effects that may occur at therapeutic doses. A commonly-used measure of drug safety is the therapeutic index--or LD50 /ED50 [formula]
It is assumed that the therapeutic effect of these anticholinesterase agents results from an elevation of brain cholinergic activity. This in turn, should be related to the degree of inhibition of acetylcholinesterase. For the purpose of the computation of the denominator of the therapeutic ratio, there is used the dose of drug that inhibits the activity of acetylcholinesterase by 50%. […] The numerator is the dose found to kill 50% of the animals within […] of a subcutaneous injection.

acetylcholinesterase = molecular target: T1, acetylcholinesterase (Mus musculus, UniProt P21836); experiment: biochemical; assay type: biochemical
T1 construct: A solubilized preparation of acetylcholinesterase was prepared from mouse whole brain (minus cerebellum); from tissue; host or cells: mouse whole brain (minus cerebellum), membrane pellet solubilized with 1% Triton
T1 sequence (P21836 32-614): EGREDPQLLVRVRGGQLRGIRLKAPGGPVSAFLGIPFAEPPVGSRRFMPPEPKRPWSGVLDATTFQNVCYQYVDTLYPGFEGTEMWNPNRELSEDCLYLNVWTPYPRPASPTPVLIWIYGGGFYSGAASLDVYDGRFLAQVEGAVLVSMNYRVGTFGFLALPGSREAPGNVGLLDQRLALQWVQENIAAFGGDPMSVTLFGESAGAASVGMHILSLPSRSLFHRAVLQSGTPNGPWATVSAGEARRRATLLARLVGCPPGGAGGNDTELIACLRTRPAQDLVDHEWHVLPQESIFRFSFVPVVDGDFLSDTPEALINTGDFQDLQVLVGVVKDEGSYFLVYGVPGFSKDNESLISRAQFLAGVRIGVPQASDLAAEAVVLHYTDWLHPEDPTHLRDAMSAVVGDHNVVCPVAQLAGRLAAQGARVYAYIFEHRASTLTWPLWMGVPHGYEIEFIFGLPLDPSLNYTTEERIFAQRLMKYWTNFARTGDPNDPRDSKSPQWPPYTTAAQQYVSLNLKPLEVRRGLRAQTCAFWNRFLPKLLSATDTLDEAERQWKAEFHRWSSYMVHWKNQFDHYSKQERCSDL
Protocol: A solubilized preparation of acetylcholinesterase was prepared from mouse whole brain (minus cerebellum). The brain was homogenized with (100 mg/ml) phosphate buffer; pH 8.0, centrifuged, the supernatant discarded, and the pellet mixed with a similar volume as above of buffer pH 8.0 plus 1% Triton; mixed, centrifuged and the supernatant which contained most of the solubilized enzyme, was used for the subsequent determinations of anticholinesterase activity.
The activity of the enzyme (rate of hydrolysis of substrate, acetylthiocholine) was measured using at least 4 different concentrations of substrate, and at least 3 different concentrations of each inhibitor. The enzyme was incubated with inhibitor for periods ranging for 2-180 mins. at 37° C., substrate was then added, and its rate of hydrolysis measured by the spectrophotometric method of Ellman et al. (1961).

[1] = system: brain acetylcholinesterase; settings: for Relative potency to physostigmine after oral administration / % cholinesterase inhibition 3 hours after s.c. administration / Relative potency to physostigmine after subcut. (s.c.) administration: mouse brain; for Relative potency to physostigmine after oral administration / Relative potency to physostigmine after subcut. (s.c.) administration: physostigmine = 100; for relative in vivo activity compared to physostigmine versus in vitro data: comparison of Table 1 with Table 2
Protocol: The effect of each compound on brain acetylcholinesterase in vivo was measured, after subcutaneous or oral administration to mice. Animals were sacrificed, at different times ranging from 0.25-8 hours after drug administration. The brain was rapidly removed, and the enzyme acetylcholinesterase extracted and solubilized with 0.1% Triton, and its ability to hydrolyse acetylthiocholine assessed as described above (in vitro experiments), in comparison with the enzyme removed from mice injected with normal saline.

[2] = system: respiratory depressant effects of morphine; assay type: in vivo; settings: rabbits, depending on drug and dose
Protocol: Different doses of the carbamate compounds were injected intravenously with morphine in rabbits Respiration rate, arterial blood gas tensions and pH were monitored continuously before and after drug administration for 4-5 hours. In another series of experiments the effect of the anticholinesterase drugs was assessed on the analgesic effect of opiates in rabbits after application of a nociceptive stimulus, i.e. electrical stimulation of the sciatic nerve.

[3] = Degree of protection afforded by pretreatment with atropine, ratio of LD50 after pretreatment with atropine sulphate 5 mg/kg to LD50 of drug alone
[4] = Ratio whose head is drawing 10 (Table 3; oral LD50 compared with s.c. LD50), mice, oral versus s.c.
[5] = sc, Therapeutic ratio LD50/ED50 s.c., mice, ED50 = dose inhibiting brain acetylcholinesterase by 50%
[6] = incubation of enzyme with inhibitor, 37° C.
[7] = parenteral administration, in words

Compound | selectivity ratio (in vivo; [3]) | selectivity ratio (in vivo; [4]) | LD50 at 3 h (in vivo; sc) [µmol/kg] | selectivity ratio (in vivo; [5]) | IC50 (acetylcholinesterase) [nM] | Time of peak activity (acetylcholinesterase; [6]) [min] | duration of significant brain enzyme inhibition (>30%) ([1]; at ED50 dose) | Relative potency to physostigmine after oral administration [1] | % cholinesterase inhibition 3 hours after s.c. administration [1] [%] | Relative potency to physostigmine after subcut. (s.c.) administration [1] | absorption from the gastro-intestinal tract compared with physostigmine (in vivo) | protection by atropine against lethality (in vivo; mice, in words) | duration of brain acetylcholinesterase inhibition compared with physostigmine or miotine [1, 7] | relative in vivo activity compared to physostigmine versus in vitro data [1] | duration of significant antagonism of the respiratory depressant effects of morphine [2] [h] | other results
CC(c1cccc(OC(=O)NC2CCCCC2)c1)N(C)C (stereo not drawn) [RA12] | 3.8 | 3.6 | 42 | 5.8 | 93 | 120 | more than 3 hours | 17 | 37 | 13 | – | – | – | – | – | –
CCCN(C)C(=O)Oc1cccc(C(C)N(C)C)c1 (stereo not drawn) [RA4, N-methyl, N-propyl-3[1-(dimethylamino)ethyl]phenyl carbamate] | 4.9 | 1.7 | 72 | 10 | 1700 | 60 | more than 3 hours | 29 | 25 | 13 | more efficiently absorbed from the gastro-intestinal tract than is physostigmine | considerably greater protection | significantly longer duration | – | – | bioavailability after oral administration compared with physostigmine ([1]; in words): better bioavailability after oral administration than physostigmine
CC(c1cccc(OC(=O)N2CCOCC2)c1)N(C)C (stereo not drawn) [RA11] | – | – | – | – | > 20000 | 30 | – | – | – | – | – | – | – | – | – | –
CCN(CC)C(=O)Oc1cccc(C(C)N(C)C)c1 (stereo not drawn) [RA8, N,N-diethyl-3-[1-(dimethylamino)ethyl]phenyl carbamate] | – | – | > 568 | > 10 | 35000 | 30 | more than 3 hours | 5 | 32 | 2 | – | – | significantly longer duration | relatively more active in vivo compared to physostigmine than one would expect from the in vitro data | – | ED50 after oral administration compared with S.C. injection ([1]; oral versus s.c.): the same as that after S.C. injection
C=CCNC(=O)Oc1cccc(C(C)N(C)C)c1 (stereo not drawn) [RA14, N-allyl-3-[1-(dimethylamino)ethyl]phenyl carbamate] | 8 | 4.4 | 69 | 11.5 | 430 | 120 | more than 3 hours | 22 | 35 | 15 | – | considerably greater protection | significantly longer duration | relatively more active in vivo compared to physostigmine than one would expect from the in vitro data | 3 to 5 | selectivity ratio (in vivo; decrease of acute toxicity (lethality) by the antidote atropine, mice, atropine): > 8
CCNC(=O)Oc1cccc(C(C)N(C)C)c1 (stereo not drawn) [RA6, N-ethyl-3[1-(dimethylamino)ethyl]phenyl carbamate] | 2.6 | 2.1 | 96 | 11.9 | 400 | 120 | more than 3 hours | 19 | 35 | 11 | more efficiently absorbed from the gastro-intestinal tract than is physostigmine | – | significantly longer duration | relatively more active in vivo compared to physostigmine than one would expect from the in vitro data | 3 to 5 | brain enzyme inhibition after 7 hours ([1]; at ED50 dose, 7 hours): 36%; bioavailability after oral administration compared with physostigmine ([1]; in words): better bioavailability after oral administration than physostigmine
CCCCNC(=O)Oc1cccc(C(C)N(C)C)c1 (stereo not drawn) [RA5, N-butyl-3-[1-(dimethylamino)ethyl]phenyl carbamate] | 5.8 | 5 | 19 | 7.6 | 76 | 120 | more than 3 hours | 29 | 30 | 36 | – | considerably greater protection | significantly longer duration | relatively more active in vivo compared to physostigmine than one would expect from the in vitro data | – | –
CC(C)NC(=O)Oc1cccc(C(C)N(C)C)c1 (stereo not drawn) [RA13] | 4.5 | 1.1 | 65 | 1.6 | 12000 | 120 | – | 5 | – | 2 | more efficiently absorbed from the gastro-intestinal tract than is physostigmine | considerably greater protection | – | – | – | –
CCN(C)C(=O)Oc1cccc(C(C)N(C)C)c1 (stereo not drawn) [RA7, N-ethyl, N-methyl-3[1-(dimethylamino)ethyl]phenyl carbamate] | – | – | 46 | – | – | – | – | – | – | – | more efficiently absorbed from the gastro-intestinal tract than is physostigmine | considerably greater protection | – | – | – | Time of peak activity (acetylcholinesterase): 90 min; brain enzyme inhibition after 7 hours ([1]; mouse, in vivo): 36%; duration of brain acetylcholinesterase inhibition compared with physostigmine or miotine ([1]; mouse, in vivo): significantly longer duration; duration of significant brain enzyme inhibition (>30%) ([1]; mouse, in vivo): more than 3 hours
CC(c1cccc(OC(=O)N(C)C)c1)N(C)C (stereo not drawn) [RA10] | 5 | 9.7 | 14 | 12.7 | 27 | 120 | – | 92 | 7 | 81 | – | considerably greater protection | – | relatively more active in vivo compared to physostigmine than one would expect from the in vitro data | 3 to 5 | therapeutic ratio (safety margin) compared with physostigmine (in vivo; mice, s.c., in words): significantly higher than of physostigmine
